The results in this text go back to patent US9422312B2, “Azabenzimidazole derivatives” (Boehringer Ingelheim International GmbH, priority 2014, dated 2016).

Molecules are shown by their SMILES.

This assay has as its target Activated AMPK complex 1 (containing alpha1beta1gamma1) (Homo sapiens (Human), UniProt Q13131+Q9Y478). In words: in vitro AMPK activation assay (ADP-Glo Kinase Assay). The format is biochemical. Particulars: 1 μM peptide substrate, 30 μM ATP, 60 min, room temperature, luminescence. The source says: Activated AMPK complex 1 (containing alpha1beta1gamma1) was obtained from baculovirus expression system. The gene encoding AMPK alpha1 was cloned into the pACG2T vector (BD Biosciences) to obtain a N-terminal Glutathion S transferase (GST)-fusion protein. The genes encoding AMPK beta 1 and gamma1 were cloned into the p2Bac dual multiple cloning site vector (Invitrogen) with beta1 under the control of the p10 promoter and gamma1 under the control of the PH promoter. The transfer vectors containing AMPK were co-transfected individually with AcPNV BacMagic-3 DNA (EMD Millipore) in Sf9 cells and the recombinant baculoviruses were harvested after 5 days, followed by 3 rounds of amplification of the virus stock in Sf9 cells. AMPK (alpha1beta1gamma1) was expressed in High Five 5 cells by co-infection of recombinant alpha1 virus and recombinant beta1/gamma1 virus for 72 h at 27° C. Cells were harvested by centrifugation and lysed by 3 freeze/thaw cycles in PBS with 10% glycerol and protease inhibitor cocktail (Roche). After centrifugation AMPK a1b1g1 in the supernatant was captured by immobilized glutathione (GE Healthcare), impurities were washed away with PBS and AMPK alpha1beta1gamma1 was eluted with PBS containing 20 mM reduced gluthathione. The protein buffer was then exchanged to PBS with 10% glycerol and protein concentration was determined by UV absorbance.
The white 384-well Optiplates (cat. no. 6007299) were purchased from PerkinElmer. The V9101 ADP-Glo Kinase Assay and ultra pure ATP (V915A) was purchased from Promega. The substrate for AMPK (NH2-HMRSAMSGLHLVKRR_CONH2) was purchased from Upstate (12-355).
Compounds were tested in either serial dilutions or single dose concentrations. The serial compound dilutions were prepared in 100% DMSO automatically. The final DMSO concentration in the assay was 0.1%.
The Compound Stock Solutions were 10 mM in 100% DMSO. The compounds were solubilised at room temperature.
In the 384-well plates 1.25 ul of test compound in assay buffer was mixed with 1.25 ul of AMPK and 1.25 μl of the peptide (final concentration of 1 μM) and 1.25 μl of ATP (final concentration of 30 μM), both dissolved in assay buffer. This step was followed by an incubation time of 60 min. Then 5 μl of ADP Glo Reagent was added. This was followed by 40 min of incubation. Then 10 μl of Kinase Detection Reagent was admixed. The plates were sealed and after an incubation period of 30 min, the luminescence signal was measured in an Envision reader. All incubation steps were accomplished at room temperature.
Each assay microtiter plate contained wells with vehicle controls instead of compound (0.1% DMSO in water) as reference for the low signal (100% CTL, low signal), and wells with serial dilutions of AMP (final 30 μM) as reference for high signals.
The luminescence signal generated was proportional to the ADP concentration produced and was correlated with AMPK activity. The analysis of the data was performed by the calculation of the percentage of ATP consumption of AMPK in the presence of the test compound compared to the consumption of ATP in the presence of AMPK without compound. (RLU(sample)/RLU(low control))*100[RLU=relative luminescence units]
An activator of the AMPK enzyme gave values above 100% CTL.
EC50 values based on dose response curves are calculated with the XIFIT software using the 4 Parameter Logistic Model or Sigmoidal Dose-Response Model.
On the technique in general: ADP-Glo turns the ADP formed in a reaction into a luminescent signal.

Sequence of Activated AMPK complex 1 (containing alpha1beta1gamma1) (Q13131 whole entry, the tested form may be a part): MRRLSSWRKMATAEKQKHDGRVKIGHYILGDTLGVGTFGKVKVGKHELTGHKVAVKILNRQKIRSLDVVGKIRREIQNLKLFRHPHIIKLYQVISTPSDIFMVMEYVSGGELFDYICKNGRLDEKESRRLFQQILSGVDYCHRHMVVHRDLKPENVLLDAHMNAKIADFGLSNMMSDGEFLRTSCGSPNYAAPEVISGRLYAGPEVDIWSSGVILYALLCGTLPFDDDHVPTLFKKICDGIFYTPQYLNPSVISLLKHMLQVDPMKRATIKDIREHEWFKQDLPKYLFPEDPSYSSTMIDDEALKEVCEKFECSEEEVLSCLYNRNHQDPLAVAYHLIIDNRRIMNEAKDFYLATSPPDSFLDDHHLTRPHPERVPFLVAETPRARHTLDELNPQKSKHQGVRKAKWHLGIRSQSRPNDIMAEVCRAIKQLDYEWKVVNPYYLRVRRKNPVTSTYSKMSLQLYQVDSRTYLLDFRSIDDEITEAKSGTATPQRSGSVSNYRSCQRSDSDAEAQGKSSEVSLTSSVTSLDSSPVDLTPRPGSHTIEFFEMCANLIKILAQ
Sequence of Activated AMPK complex 1 (containing alpha1beta1gamma1) (Q9Y478 whole entry, the tested form may be a part): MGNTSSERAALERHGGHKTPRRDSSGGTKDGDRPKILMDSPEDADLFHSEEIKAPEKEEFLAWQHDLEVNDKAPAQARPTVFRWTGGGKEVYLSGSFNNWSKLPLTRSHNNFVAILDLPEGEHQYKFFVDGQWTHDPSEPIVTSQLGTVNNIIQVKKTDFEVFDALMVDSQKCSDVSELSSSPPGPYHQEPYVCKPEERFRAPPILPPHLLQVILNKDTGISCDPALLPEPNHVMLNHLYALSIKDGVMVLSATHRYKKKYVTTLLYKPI
Sequence of Activated AMPK complex 1 (containing alpha1beta1gamma1) (P54619 whole entry partner, the tested form may be a part): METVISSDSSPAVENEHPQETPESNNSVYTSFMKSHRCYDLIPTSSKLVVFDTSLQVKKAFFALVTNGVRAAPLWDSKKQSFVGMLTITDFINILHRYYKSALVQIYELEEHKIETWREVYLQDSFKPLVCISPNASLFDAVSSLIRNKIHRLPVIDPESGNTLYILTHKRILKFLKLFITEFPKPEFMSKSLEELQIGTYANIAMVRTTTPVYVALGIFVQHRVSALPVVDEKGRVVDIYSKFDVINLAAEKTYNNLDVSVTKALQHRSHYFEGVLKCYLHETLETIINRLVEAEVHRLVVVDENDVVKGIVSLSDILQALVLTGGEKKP

For `CN=S(=O)(c1ccc(-c2ccc(-c3nc4[nH]c(O[C@@H]5CO[C@H]6[C@@H]5OC[C@H]6O)nc4cc3Cl)cc2)cc1)N(C)C` (stereo partly drawn) [Example 15, 4-[4-(2-{[(3R,3aR,6R,6aR)-6-Hydroxy-hexahydrofuro[3,2-b]furan-3-yl]oxy}-6-chloro-3H-imidazo[4,5-b]pyridin-5-yl)phenyl]-N,N,N′-trimethyl-benzenesulfonimidamide], the response was half-maximal at 90 nM (EC50). This lies in the double-digit nanomolar range.

Regarding `CC(C)NS(C)(=O)=Nc1ccc(-c2ccc(-c3nc4[nH]c(O[C@@H]5CO[C@H]6[C@@H]5OC[C@H]6O)nc4cc3Cl)cc2)cc1` (stereo partly drawn) [Example 3, N′-{4-[4-(2-{[(3R,3aR,6R,6aR)-6-Hydroxy-hexahydrofuro[3,2-b]furan-3-yl]oxy}-6-chloro-3H-imidazo[4,5-b]pyridin-5-yl)phenyl]phenyl}-N-(propan-2-yl)-methanesulfonimidamide], the EC50 was determined as 94 nM.

`CCNS(C)(=O)=Nc1ccc(-c2ccc(-c3nc4[nH]c(O[C@@H]5CO[C@H]6[C@@H]5OC[C@H]6O)nc4cc3Cl)cc2)cc1` (stereo partly drawn) [Example 8, N-{4-[4-(2-{[(3R,3aR,6R,6aR)-6-Hydroxy-hexahydrofuro[3,2-b]furan-3-yl]oxy}-6-chloro-3H-imidazo[4,5-b]pyridin-5-yl)phenyl]phenyl}-N′-ethyl-methanesulfonimidamide] returned a concentration giving a half-maximal response (EC50) of 61 nM. Against the preceding compound, the EC50 is about 1.5-fold lower.

Take `CS(=O)(=NCc1ccc(-c2ccc(-c3nc4[nH]c(O[C@@H]5CO[C@H]6[C@@H]5OC[C@H]6O)nc4cc3Cl)cc2)cc1)N1CCCC1` (stereo partly shown) [Example 19]: the EC50 is 138 nM.

Consider `CNS(C)(=O)=Nc1ccc(-c2ccc(-c3nc4[nH]c(O[C@@H]5CO[C@H]6[C@@H]5OC[C@H]6O)nc4cc3Cl)cc2)cc1` (stereo partly drawn) [Example 2, N′-{4-[4-(2-{[(3R,3aR,6R,6aR)-6-Hydroxy-hexahydrofuro[3,2-b]furan-3-yl]oxy}-6-chloro-3H-imidazo[4,5-b]pyridin-5-yl)phenyl]phenyl}-N-methyl-methanesulfonimidamide], for which the EC50 was found to be 20 nM.

As for `CN(C)S(C)(=O)=Nc1ccc(-c2ccc(-c3nc4[nH]c(O[C@@H]5CO[C@H]6[C@@H]5OC[C@H]6O)nc4cc3Cl)cc2)nc1` (stereo partly drawn) [Example 10, N′-{6-[4-(2-{[(3R,3aR,6R,6aR)-6-Hydroxy-hexahydrofuro[3,2-b]furan-3-yl]oxy}-6-chloro-3H-imidazo[4,5-b]pyridin-5-yl)phenyl]pyridin-3-yl}-N,N-dimethyl-methanesulfonimidamide], the concentration giving a half-maximal response (EC50) was determined as 17 nM.

Regarding `CCN(C)S(C)(=O)=Nc1ccc(-c2ccc(-c3nc4[nH]c(O[C@@H]5CO[C@H]6[C@@H]5OC[C@H]6O)nc4cc3Cl)cc2)cc1` (stereo partly drawn) [Example 4, N′-{4-[4-(2-{[(3R,3aR,6R,6aR)-6-Hydroxy-hexahydrofuro[3,2-b]furan-3-yl]oxy}-6-chloro-3H-imidazo[4,5-b]pyridin-5-yl)phenyl]phenyl}-N-ethyl-N-methyl-methanesulfonimidamide], a half-maximal effect (EC50) was put at 52 nM.

On to `N#CN=S1(=O)CCCN1c1ccc(-c2ccc(-c3nc4[nH]c(O[C@@H]5CO[C@H]6[C@@H]5OC[C@H]6O)nc4cc3Cl)cc2)cc1` (stereo partly drawn) [Example 17, [(2-{4-[4-(2-{[(3R,3aR,6R,6aR)-6-Hydroxy-hexahydrofuro[3,2-b]furan-3-yl]oxy}-6-chloro-3H-imidazo[4,5-b]pyridin-5-yl)phenyl]phenyl}-1-oxo-1λ^6,2-thiazolidin-1-ylidene)amino]carbonitrile], for which the response was half-maximal at 202 nM (EC50).

As for `CS(=O)(=Nc1ccc(-c2ccc(-c3nc4[nH]c(O[C@@H]5CO[C@H]6[C@@H]5OC[C@H]6O)nc4cc3Cl)cc2)cc1)NC1CC1` (stereo partly drawn) [Example 9, N-{4-[4-(2-{[(3R,3aR,6R,6aR)-6-Hydroxy-hexahydrofuro[3,2-b]furan-3-yl]oxy}-6-chloro-3H-imidazo[4,5-b]pyridin-5-yl)phenyl]phenyl}-N′-cyclopropyl-methanesulfonimidamide], the EC50 turned out to be 89 nM.

Take `CS(=O)(=Nc1ccc(-c2ccc(-c3nc4[nH]c(O[C@@H]5CO[C@H]6[C@@H]5OC[C@H]6O)nc4cc3Cl)cc2)cc1)N1CCC1` (stereo partly shown) [Example 5]: the response was half-maximal at 15 nM (EC50).

`CN(C)S(=N)(=O)c1ccc(-c2ccc(-c3nc4[nH]c(O[C@@H]5CO[C@H]6[C@@H]5OC[C@H]6O)nc4cc3Cl)cc2)cc1` (stereo partly drawn) [Example 12, 4-[4-(2-{[(3R,3aR,6R,6aR)-6-Hydroxy-hexahydrofuro[3,2-b]furan-3-yl]oxy}-6-chloro-3H-imidazo[4,5-b]pyridin-5-yl)phenyl]-N,N-dimethyl-benzenesulfonimidamide]: the EC50 was 2 nM.

`CN(C)S(C)(=O)=Nc1ccc(-c2ccc(-c3nc4[nH]c(O[C@@H]5CO[C@H]6[C@@H]5OC[C@H]6O)nc4cc3Cl)cc2)cc1` (stereo partly drawn) [Example 1, N′-{4-[4-(2-{[(3R,3aR,6R,6aR)-6-Hydroxy-hexahydrofuro[3,2-b]furan-3-yl]oxy}-6-chloro-3H-imidazo[4,5-b]pyridin-5-yl)phenyl]phenyl}-N,N-dimethyl-methanesulfonimidamide]: the midpoint of the response, the EC50, lay at 26 nM.

As to `CNS(C)(=O)=Nc1ccc(-c2ccc(-c3nc4[nH]c(O[C@@H]5CO[C@H]6[C@@H]5OC[C@H]6O)nc4cc3Cl)cc2)nc1` (stereo partly drawn) [Example 11, N′-{6-[4-(2-{[(3R,3aR,6R,6aR)-6-Hydroxy-hexahydrofuro[3,2-b]furan-3-yl]oxy}-6-chloro-3H-imidazo[4,5-b]pyridin-5-yl)phenyl]pyridin-3-yl}-N-methyl-methanesulfonimidamide], the EC50 amounted to 62 nM.

For the compound `N=S1(=O)CCCN1Cc1ccc(-c2ccc(-c3nc4[nH]c(O[C@@H]5CO[C@H]6[C@@H]5OC[C@H]6O)nc4cc3Cl)cc2)cc1` (stereo partly drawn) [Example 14, 2-({4-[4-(2-{[(3R,3aR,6R,6aR)-6-Hydroxy-hexahydrofuro[3,2-b]furan-3-yl]oxy}-6-chloro-3H-imidazo[4,5-b]pyridin-5-yl)phenyl]phenyl}methyl)-1-imino-1λ^6,2-thiazolidin-1-one], it took 52 nM to reach a half-maximal effect (EC50).

For `CN=S(=O)(NC)c1ccc(-c2ccc(-c3nc4[nH]c(O[C@@H]5CO[C@H]6[C@@H]5OC[C@H]6O)nc4cc3Cl)cc2)cc1` (stereo partly drawn) [Example 18, 4-[4-(2-{[(3R,3aR,6R,6aR)-6-hydroxy-hexahydrofuro[3,2-b]furan-3-yl]oxy}-6-chloro-3H-imidazo[4,5-b]pyridin-5-yl)phenyl]-N,N′-dimethyl-benzenesulfonimidamide], it took 67 nM to reach a half-maximal effect (EC50).

As for `CS(=O)(=Nc1ccc(-c2ccc(-c3nc4[nH]c(O[C@@H]5CO[C@H]6[C@@H]5OC[C@H]6O)nc4cc3Cl)cc2)cc1)N1CCCC1` (stereo partly drawn) [Example 6, (3R,3aR,6R,6aR)-6-({6-Chloro-5-[4-(4-{[methyl(oxo)pyrrolidin-1-yl-λ^6-sulfanylidene]-amino}phenyl)phenyl]-3H-imidazo[4,5-b]pyridin-2-yl}oxy)hexahydrofuro[3,2-b]furan-3-ol], the EC50 was found to be 54 nM.

`CN(C)S(C)(=O)=Nc1ccc(-c2nc3[nH]c(O[C@@H]4CO[C@H]5[C@@H]4OC[C@H]5O)nc3cc2Cl)cc1` (stereo partly drawn) [Example 21, N′-[4-(2-{[(3R,3aR,6R,6aR)-6-Hydroxy-hexahydrofuro[3,2-b]furan-3-yl]oxy}-6-chloro-3H-imidazo[4,5-b]pyridin-5-yl)phenyl]-N,N-dimethyl-methanesulfonimidamide] returned an EC50 of 2900 nM.

As to `CS(=O)(=Nc1ccc(-c2ccc(-c3nc4[nH]c(O[C@@H]5CO[C@H]6[C@@H]5OC[C@H]6O)nc4cc3Cl)cc2)cc1)NC1CCC1` (stereo partly drawn) [Example 7, N-{4-[4-(2-{[(3R,3aR,6R,6aR)-6-Hydroxy-hexahydrofuro[3,2-b]furan-3-yl]oxy}-6-chloro-3H-imidazo[4,5-b]pyridin-5-yl)phenyl]phenyl}-N′-cyclobutyl-methanesulfonimidamide], the midpoint of the response, the EC50, lay at 37 nM.

Turning to `CS(=O)(=Nc1cnc(-c2ccc(-c3nc4[nH]c(O[C@@H]5CO[C@H]6[C@@H]5OC[C@H]6O)nc4cc3Cl)cc2)nc1)N1CCCC1` (stereo partly drawn) [Example 16, (3R,3aR,6R,6aR)-6-({6-Chloro-5-[4-(5-{[methyl(oxo)pyrrolidin-1-yl-λ^6-sulfanylidene]-amino}pyrimidin-2-yl)phenyl]-3H-imidazo[4,5-b]pyridin-2-yl}oxy)-hexahydrofuro[3,2-b]furan-3-ol], the EC50 was found to be 48 nM. The EC50 values of the last two compounds are within 1.5-fold of each other.

What is called EC50 is the concentration at which the effect is half-maximal. Low readings indicate a more potent agent, high ones a less potent agent.
